Data set [1] has as its system human PCSK9 locus. The experiment in a line: Secreted PCSK9 by ELISA (normalized to total cell count) in Huh7 cells transfected with mRNA and gRNA. Particulars: paired with LTRP5-ADD-ZIM3 mRNA, Huh7 cells, 6 days post-transfection; for Secreted PCSK9: normalized to total cell count; for Percent reduction in PCSK9 secretion: relative to non-targeting gRNA control; for Average percent reduction in PCSK9 secretion: averaged from the two doses. It counts as cell-based. The essentials: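 Huh7 cells were transfected with CasX or epigenetic-editor mRNA plus PCSK9- or B2M-targeting gRNA (scaffold 316). In one screen, LTRP5-ADD-ZIM3 mRNA:gRNA was given at 50:25 or 25:12.5 ng by Lipofectamine 3000. Secreted PCSK9 was measured by ELISA in supernatant 4-87 days post-transfection and normalized to total cell count.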

For the next data set, the system named is Huh7 cells. In words: RNA-seq: differentially regulated off-target genes in transfected Huh7 cells. Particulars: 6 and 26 days, |log2FC|>2 and adjusted p-value<0.001, vs untreated naive. It counts as cell-based, human. The text has this:
(§1) Seeded Huh7 cells were transfected with mRNA encoding a catalytically-active CasX 676, dXR1, or LTRP5-ADD-ZIM3 and a gRNA with scaffold 316 and a spacer targeting the PCSK9 locus. Cells were harvested at 6 and 26 days post-transfection and subsequently lysed and stored in DNA/RNA Shield (Zymo Research). As an additional control, untreated, naïve cells were also harvested. The collected samples were subjected to gDNA/RNA extraction using the Quick-DNA/RNA Miniprep Plus kit (Zymo Research). RNA samples were used for total RNA sequencing (RNA-seq), which was performed by a third-party. Raw FASTQ files were received and processed with FASTQC, and adapters were trimmed using Trim Galore. Transcript expression was then quantified against the hg38 genome using Salmon to generate normalized counts for each gene (transcripts per million, or TPM). Differential expression analysis was performed using DESeq2. Genes with fewer than 10 counts in all samples were omitted from analysis, and all pairwise comparisons (e.g., differential gene expression analyses between untreated and treated conditions at the two individual timepoints) were done with significance thresholds of |log 2FC|>2 and adjusted p-value<0.001.

In data set [2] the test system is human PCSK9 locus. In words: RNA-seq: normalized PCSK9 read counts (log2FC) in transfected Huh7 cells. It counts as cell-based. The conditions noted are these: mRNA + gRNA scaffold 316 (v1), 6 and 26 days post-transfection, vs untreated naive.
From the text: as §1

The test system of a further data set is PCSK9 protein. The experiment in a line: Western blot of intracellular pro-PCSK9 and processed PCSK9 in transfected HepG2 cells. It counts as cell-based, human. Particulars: CasX 676 mRNA #2 + gRNA, western blot densitometry, two days post-transfection. How it is done:
(§2) To determine whether use of certain PCSK9-targeting spacers would result in potential intracellular PCSK9 retention, ˜50,000 HepG2 cells were seeded per well in a 96-well plate. CasX 676 mRNA #2 was transfected into HepG2 cells with a PCSK9-targeting gRNA using Lipofectamine™. After a media change, the following were harvested two days post-transfection: 1) media supernatant to measure secreted PCSK9 protein levels by ELISA; and 2) transfected cells for western blotting analysis to evaluate intracellular PCSK9 levels. Harvested cells were subjected to whole cell lysate extraction for western blotting analysis. Briefly, extracted protein samples were resolved by SDS-PAGE followed by immunoblotting to analyze levels of pro-PCSK9 and processed PCSK9, which were quantified by densitometry. Secreted PCSK9 levels in the media supernatant were analyzed using the BioLegend® ELISA MAX™ kit following the manufacturer's instructions. Naïve, untreated cells and cells transfected with CasX 676 mRNA #2 only served as two experimental controls.

Data set [3] relates to human PCSK9 locus. In words: Secreted PCSK9 by ELISA in HepG2 cells transfected with CasX 676 mRNA #2 and PCSK9-targeting gRNA. It counts as cell-based. The conditions noted are these: CasX 676 mRNA #2 + gRNA scaffold 316 (v1), two days post-transfection. How it is done:
In vitro transcription of CasX 676 mRNA #2 (sequence listed in Table 28, below) was performed as described in Example 7, below. Guide RNAs using scaffold 316 and a PCSK9-targeting spacer were synthesized with a v1 modification profile (as discussed in Example 7). Spacers 6.1, 6.8, 6.86, 6.114, 6.197, and 6.203 (sequences listed in Table 24) were assessed for intracellular PCSK9 retention.
as §2, with “Naïve, untreated cells and cells transfected with CasX 676 mRNA #2 only served as two experimental controls.” left out

Another data set relates to HBEGF locus. It counts as cell-based, human. The conditions noted are these: HEK293T; dCasX491 fusion, scaffold 174 spacer 34.28; 2 ng/ml diphtheria toxin for 48 hours.

“AGGGUGUGGGUGCUUGACGC (listed as RNA, chemistry not given here) [spacer 6.154, Promoter]”: in the data set with human PCSK9 locus [1] (25 ng mRNA:12.5 ng gRNA), the “Secreted PCSK9” value turned out to be 24.48 ng/mL and the “Percent reduction in PCSK9 secretion” value is given as 65.64%. In the data set on human PCSK9 locus [1] (50 ng mRNA:25 ng gRNA), the “Secreted PCSK9” value worked out at 6.87 ng/mL and the “Percent reduction in PCSK9 secretion” value turned out to be 91.65%. For the same substance, the “Average percent reduction in PCSK9 secretion” value (from here on “Average percent reduction”) with human PCSK9 locus [1] is given as 78.64%. Besides, in the data set with Huh7 cells, the “number of differentially regulated off-target genes” value is “higher number of differentially regulated off-target genes”. Moreover, in the data set with human PCSK9 locus [2], the “PCSK9 expression (RNA-seq)” value is given as “durably repress PCSK9 expression through day 26”.
“AUGGUAGGCACAAGCUCAGC (listed as RNA, chemistry not given here) [spacer 6.133, Promoter]”: in the data set with human PCSK9 locus [1] (25 ng mRNA:12.5 ng gRNA), the “Secreted PCSK9” value turned out to be 42.13 ng/mL and the “Percent reduction in PCSK9 secretion” value worked out at 40.86%. For the same substance, in the data set with human PCSK9 locus [1] (50 ng mRNA:25 ng gRNA), the “Secreted PCSK9” value was determined as 29.45 ng/mL and the “Percent reduction in PCSK9 secretion” value is 64.21%. Further, the “Average percent reduction” value in the data set with human PCSK9 locus [1] amounted to 52.53%. For the same substance, the “number of differentially regulated off-target genes” value in the data set with Huh7 cells is given as “lowest number of differentially regulated off-target genes”. In the data set on human PCSK9 locus [2], the “PCSK9 expression (RNA-seq)” value was “durably repress PCSK9 expression through day 26”.
As for “CACUGAAUAGCGCAGCCGCA (listed as RNA, chemistry not given here) [spacer 6.167, Intron 1]”, the “Secreted PCSK9” value in the data set on human PCSK9 locus [1] (25 ng mRNA:12.5 ng gRNA) turned out to be 66.61 ng/mL; with human PCSK9 locus [1] (50 ng mRNA:25 ng gRNA), 39.55 ng/mL. Moreover, the “Percent reduction in PCSK9 secretion” value with human PCSK9 locus [1] (25 ng mRNA:12.5 ng gRNA) was 6.51%; in the data set with human PCSK9 locus [1] (50 ng mRNA:25 ng gRNA), 51.93%. Also, the “Average percent reduction” value in the data set on human PCSK9 locus [1] worked out at 29.22%. Further, the “number of differentially regulated off-target genes” value with Huh7 cells is recorded as “higher number of differentially regulated off-target genes”. Moreover, the “PCSK9 expression (RNA-seq)” value in the data set with human PCSK9 locus [2] is recorded as “durably repress PCSK9 expression through day 26”.
In the case of “GAGGAGGACGGCCUGGCCGA (listed as RNA, chemistry not given here) [spacer 6.1, Exon 1]”, in the data set on human PCSK9 locus [1] (25 ng mRNA:12.5 ng gRNA), the “Secreted PCSK9” value is given as 32.86 ng/mL and the “Percent reduction in PCSK9 secretion” value came out at 53.88%. Further, in the data set with human PCSK9 locus [1] (50 ng mRNA:25 ng gRNA), the “Secreted PCSK9” value came to 18.21 ng/mL and the “Percent reduction in PCSK9 secretion” value was found to be 77.86%. In addition, the “Average percent reduction” value with human PCSK9 locus [1] turned out to be 65.87%. The “intracellular pro-PCSK9 / intracellular protein levels” value in the data set with PCSK9 protein was “did not result in substantially increased pro-PCSK9 levels”. The “reduction in secreted PCSK9 levels compared to cells transfected with CasX 676 mRNA only” value with human PCSK9 locus [3] is ~50%.
For the substance “ZIM3: human ZIM3 KRAB repressor domain, SEQ ID NO: 128 [reference compound]”, in the data set with HBEGF locus, the “log 2 (fold change) of abundance before and after selection” value is given as 1.7787.
The same measure, in the same setting: in the case of “standard ZNF10: human ZNF10 KRAB repressor domain, SEQ ID NO: 129 [reference compound]” it was 1.3637.

The values above are taken from patent US12551573B2, “Compositions and methods for the targeting of PCSK9” (Scribe Therapeutics Inc., priority 2022, dated 2026).
